Data as given in US20050208496A1, “Methods of testing for bronchial asthma or chronic obstructive pulmonary disease” (Genox Research, Inc., priority 2002, published 2005).

Test system: mouse counterpart genes
Assay: Mouse GeneChip (MG-U74A to MG-U74C) analysis of lung and trachea of the OVA antigen-exposed bronchial hypersensitivity model, S-Sal group versus S-OVA group
Format: in vivo
[1] = S-Sal group vs S-OVA group, chip B, 1st
[2] = S-Sal group vs S-OVA group, chip B, 2nd
[3] = S-Sal group vs S-OVA group, chip B, 3rd
[4] = S-Sal group vs S-OVA group, chip C, 1st
[5] = S-Sal group vs S-OVA group, chip C, 2nd
[6] = S-Sal group vs S-OVA group, chip C, 3rd
[7] = S-Sal vs S-OVA group, 1st, P/A: A
[8] = S-Sal vs S-OVA group, 1st, P/A: M
[9] = S-Sal vs S-OVA group, 1st, P/A: P
[10] = S-Sal vs S-OVA group, 2nd, P/A: A
[11] = S-Sal vs S-OVA group, 2nd, P/A: P

Substance: ovalbumin [OVA antigen, ovalbumin antigen used for sensitization and inhalation to induce bronchial hypersensitivity in mice]
- Fold Change, SAM domain and HD domain, 1 (mouse Probe ID 109915_at) [1]: 1.2
- Fold Change, Similar to dihydropyrimidine dehydrogenase, clone MGC: 37940 (mouse Probe ID 111949_at) [1]: 0.588
- Fold Change, Similar to guanylate nucleotide binding protein 3, clone MGC: 6385 (mouse Probe ID 107939_at) [1]: 1.9
- Fold Change, procollagen lysine, 2-oxoglutarate 5-dioxygenase 2 (mouse Probe ID 114376_at) [1]: 0.833
- Fold Change, thioredoxin reductase 1 (mouse Probe ID 162642_at) [1]: 0.323
- Fold Change, ESTs AI844322 (mouse Probe ID 110469_at) [2]: 0.833
- Fold Change, RIKEN cDNA 2610017M01 gene (mouse Probe ID 105606_at) [2]: 0.5
- Fold Change, RIKEN cDNA 2610017M01 gene (mouse Probe ID 163053_at) [2]: 0.833
- Fold Change, SAM domain and HD domain, 1 (mouse Probe ID 109915_at) [2]: 0.303
- Fold Change, Similar to dihydropyrimidine dehydrogenase, clone MGC: 37940 (mouse Probe ID 111949_at) [2]: 0.588
- Fold Change, Similar to guanylate nucleotide binding protein 3, clone MGC: 6385 (mouse Probe ID 107939_at) [2]: 1.2
- Fold Change, growth arrest and DNA-damage-inducible 45 gamma (mouse Probe ID 109336_at) [2]: 1.7
- Fold Change, procollagen lysine, 2-oxoglutarate 5-dioxygenase 2 (mouse Probe ID 114376_at) [2]: 1.1
- Fold Change, thioredoxin reductase 1 (mouse Probe ID 162642_at) [2]: 2.8
- Fold Change, RIKEN cDNA 2610017M01 gene (mouse Probe ID 105606_at) [3]: 0.667
- Fold Change, RIKEN cDNA 2610017M01 gene (mouse Probe ID 163053_at) [3]: 1.2
- Fold Change, SAM domain and HD domain, 1 (mouse Probe ID 109915_at) [3]: 1.1
- Fold Change, Similar to dihydropyrimidine dehydrogenase, clone MGC: 37940 (mouse Probe ID 111949_at) [3]: 0.833
- Fold Change, Similar to guanylate nucleotide binding protein 3, clone MGC: 6385 (mouse Probe ID 107939_at) [3]: 0.833
- Fold Change, thioredoxin reductase 1 (mouse Probe ID 162642_at) [3]: 0.588
- Fold Change, RIKEN cDNA 6330404C01 gene (mouse Probe ID 166590_at) [4]: 2
- Fold Change, expressed sequence AV022454 (mouse Probe ID 165678_i_at) [4]: 1.3
- Fold Change, interferon-induced protein with tetratricopeptide repeats 1 (mouse Probe ID 168299_f_at) [4]: 1.3
- Fold Change, small inducible cytokine subfamily B (Cys-X-Cys), member 11 (mouse Probe ID 140659_at) [4]: 3.8
- Fold Change, RIKEN cDNA 6330404C01 gene (mouse Probe ID 166590_at) [5]: 1
- Fold Change, expressed sequence AV022454 (mouse Probe ID 165678_i_at) [5]: 1.3
- Fold Change, hydroxysteroid (17-beta) dehydrogenase 2 (mouse Probe ID 166141_i_at) [5]: 0.526
- Fold Change, interferon-induced protein with tetratricopeptide repeats 1 (mouse Probe ID 168299_f_at) [5]: 1.1
- Fold Change, sialyltransferase 1 (beta-galactoside alpha-2,6-sialyltransferase) (mouse Probe ID 167200_r_at) [5]: 1.6
- Fold Change, small inducible cytokine subfamily B (Cys-X-Cys), member 11 (mouse Probe ID 140659_at) [5]: 2
- Fold Change, expressed sequence AV022454 (mouse Probe ID 165678_i_at) [6]: 2.2
- Fold Change, hydroxysteroid (17-beta) dehydrogenase 2 (mouse Probe ID 166141_i_at) [6]: 1.9
- Fold Change, hydroxysteroid (17-beta) dehydrogenase 2 (mouse Probe ID 169670_at) [6]: 0.385
- Fold Change, interferon-induced protein with tetratricopeptide repeats 1 (mouse Probe ID 168299_f_at) [6]: 1.2
- Fold Change, small inducible cytokine subfamily B (Cys-X-Cys), member 11 (mouse Probe ID 140659_at) [6]: 1
- Fold Change, DNA-damage inducible transcript 3 (mouse Probe ID 101429_at) [7]: 0.37
- Fold Change, RAS guanyl releasing protein 1 (mouse Probe ID 98307_at) [7]: 0.5
- Fold Change, RAS guanyl releasing protein 1 (mouse Probe ID 167498_i_at) [7]: 0.833
- Fold Change, RIKEN cDNA A2301D9K23 gene (mouse Probe ID 163453_at) [7]: 1.6
- Fold Change, RIKEN cDNA A2301D9K23 gene (mouse Probe ID 166475_r_at) [7]: 1.2
- Fold Change, acid phosphatase 5, tartrate resistant (mouse Probe ID 162543_r_at) [7]: 4.3
- Fold Change, cathepsin C (mouse Probe ID 101020_at) [7]: 1.8
- Fold Change, cathepsin C (mouse Probe ID 161251_f_at) [7]: 0.667
- Fold Change, cytokine inducible SH2-containing protein 1 (mouse Probe ID 92832_at) [7]: 1.6
- Fold Change, dual specificity phosphatase 14 (mouse Probe ID 165144_r_at) [7]: 0.5
- Fold Change, dual specificity phosphatase 14 (mouse Probe ID 171285_at) [7]: 1.7
- Fold Change, fetuin beta (mouse Probe ID 108524_at) [7]: 1.2
- Fold Change, keratin complex 1, acidic, gene 16 (mouse Probe ID 103589_at) [7]: 1.8
- Fold Change, keratin complex 1, acidic, gene 16 (mouse Probe ID 164428_i_at) [7]: 1.5
- Fold Change, nuclear factor, interleukin 3, regulated (mouse Probe ID 164758_i_at) [7]: 1.4
- Fold Change, serine (or cysteine) proteinase inhibitor, clade B (ovalbumin), member 2 (mouse Probe ID 137166_r_at) [7]: 0.667
- Fold Change, transmembrane 4 superfamily member 8 (mouse Probe ID 97912_at) [7]: 3.6
- Fold Change, ubiquitin D (mouse Probe ID 169362_f_at) [7]: 1.2
- Fold Change, neutrophil cytosolic factor 2 (mouse Probe ID 102326_at) [8]: 2
- Fold Change, ubiquitin fusion degradation 1 like (mouse Probe ID 93303_at) [8]: 0.567
- Fold Change, DEAD (aspartate-glutamate-alanine-aspartate) box polypeptide 5 (mouse Probe ID 93493_at) [9]: 1
- Fold Change, DEAD (aspartate-glutamate-alanine-aspartate) box polypeptide 5 (mouse Probe ID 113899_at) [9]: 0.909
- Fold Change, RIKEN cDNA 4933419D20 gene (mouse Probe ID 97442_at) [9]: 1.2
- Fold Change, RIKEN cDNA 4933419D20 gene (mouse Probe ID 112237_at) [9]: 1.1
- Fold Change, cathepsin C (mouse Probe ID 101019_at) [9]: 1.2
- Fold Change, dual specificity phosphatase 14 (mouse Probe ID 162702_at) [9]: 1.2
- Fold Change, expressed sequence AI463430 (mouse Probe ID 112883_at) [9]: 1
- Fold Change, fatty acid binding protein 4, adipocyte (mouse Probe ID 100567_at) [9]: 0.556
- Fold Change, integrin-associated protein (mouse Probe ID 103611_at) [9]: 1
- Fold Change, ribosomal protein S16 (mouse Probe ID 97647_at) [9]: 1
- Fold Change, ribosomal protein S16 (mouse Probe ID 169860_r_at) [9]: 33
- Fold Change, serine (or cysteine) proteinase inhibitor, clade B (ovalbumin), member 2 (mouse Probe ID 92978_s_at) [9]: 2.1
- Fold Change, serine (or cysteine) proteinase inhibitor, clade B (ovalbumin), member 6 (mouse Probe ID 96060_at) [9]: 1.1
- Fold Change, signal transducer and activator of transcription 1 (mouse Probe ID 101465_at) [9]: 1.8
- Fold Change, signal transducer and activator of transcription 1 (mouse Probe ID 114635_at) [9]: 2
- Fold Change, ubiquitin D (mouse Probe ID 168938_r_at) [9]: 1.4
- Fold Change, DNA-damage inducible transcript 3 (mouse Probe ID 101429_at) [10]: 0.526
- Fold Change, RAS guanyl releasing protein 1 (mouse Probe ID 167498_i_at) [10]: 1.6
- Fold Change, RIKEN cDNA A2301D9K23 gene (mouse Probe ID 163453_at) [10]: 1.4
- Fold Change, RIKEN cDNA A2301D9K23 gene (mouse Probe ID 166475_r_at) [10]: 0.556
- Fold Change, acid phosphatase 5, tartrate resistant (mouse Probe ID 162543_r_at) [10]: 6.8
- Fold Change, cathepsin C (mouse Probe ID 101020_at) [10]: 0.625
- Fold Change, cathepsin C (mouse Probe ID 161251_f_at) [10]: 1
- Fold Change, cytokine inducible SH2-containing protein 1 (mouse Probe ID 92832_at) [10]: 1.9
- Fold Change, dual specificity phosphatase 14 (mouse Probe ID 165144_r_at) [10]: 0.833
- Fold Change, fetuin beta (mouse Probe ID 108524_at) [10]: 0.278
- Fold Change, keratin complex 1, acidic, gene 16 (mouse Probe ID 103589_at) [10]: 1.3
- Fold Change, keratin complex 1, acidic, gene 16 (mouse Probe ID 164428_i_at) [10]: 1.6
- Fold Change, ribosomal protein S16 (mouse Probe ID 169860_r_at) [10]: 1.4
- Fold Change, serine (or cysteine) proteinase inhibitor, clade B (ovalbumin), member 2 (mouse Probe ID 137166_r_at) [10]: 0.667
- Fold Change, transmembrane 4 superfamily member 8 (mouse Probe ID 97912_at) [10]: 1
- Fold Change, ubiquitin D (mouse Probe ID 92715_at) [10]: 0.455
- Fold Change, ubiquitin D (mouse Probe ID 168938_r_at) [10]: 0.667
- Fold Change, ubiquitin D (mouse Probe ID 169362_f_at) [10]: 1
- Fold Change, ubiquitin fusion degradation 1 like (mouse Probe ID 93303_at) [10]: 0.303
- Fold Change, RAS guanyl releasing protein 1 (mouse Probe ID 98307_at) (S-Sal vs S-OVA group, 2nd, P/A: M): 1.7
- Fold Change, DEAD (aspartate-glutamate-alanine-aspartate) box polypeptide 5 (mouse Probe ID 93493_at) [11]: 1
- Fold Change, DEAD (aspartate-glutamate-alanine-aspartate) box polypeptide 5 (mouse Probe ID 113899_at) [11]: 0.714
- Fold Change, RIKEN cDNA 4933419D20 gene (mouse Probe ID 97442_at) [11]: 1
- Fold Change, RIKEN cDNA 4933419D20 gene (mouse Probe ID 112237_at) [11]: 1
- Fold Change, acid phosphatase 5, tartrate resistant (mouse Probe ID 98859_at) [11]: 1.4
